{"source": "patent US10823735B2", "about": "“Monoclonal antibody for predicting tamoxifen response in breast cancer patients” (The University of Hong Kong, priority 2015, dated 2020)", "key": {"[1]": {"test_system": "ZR75-BQ323636.1 and MCF7-BQ323636.1", "assay": "MTT assay, tamoxifen response of BQ323636.1 overexpressing cell lines", "assay_type": "cell-based, Human", "settings": "BQ323636.1 overexpression versus empty vector cell lines", "method": "Cell lines—Human breast cancer cell lines MCF7 and ZR-75-1 were purchased from American Type Culture Collection and were re-authenticated by short tandem repeat profiling (Zhang, Gong et al. 2013). MCF7 was cultured in Dulbecco's Modified Eagle's Medium supplemented with 10% FBS and 1% penicillin/streptomycin and ZR-75-1 was cultured in Improved Minimum Essential Medium (IMEM) supplemented with 5% FBS and 1% penicillin/streptomycin. LCC2 and AK-47 are the two tamoxifen resistant cell lines derived from MCF7 and ZR-75-1, respectively and were kindly provided by Dr. Robert Clarke (Georgetown University Medical School, Washington, D.C.) (Wong, Dai et al. 2006) and have been used in our previous study (Zhang, Gong et al. 2013). LCC2 and AK-47 were both cultured in IMEM supplemented with 5% charcoal-stripped FBS and 1% penicillin/streptomycin. All the cell lines used in this study have been passaged and kept fewer than 6 months after the re-authentication or thawing. […]\nMTT assay—Cells were seeded at a density of 6×10^3 cells/well. […] Extinction of the samples was measured by the Infinite 200 microtiter plate reader (Tecan) at 570 nm with a reference wavelength at 750 nm. Background MTT readings were subtracted from the samples. […]"}, "ZR75-vector": {"test_system": "ZR75-vector", "assay": "Orthotopic nude mouse model, ZR75-vector", "assay_type": "in vivo, nude mice", "settings": "mammary fat pad, daily subcutaneous injection in peanut oil", "method": "(§1) Orthotopic mouse model—The cell lines mixed with Matrigel (BD Biosciences) at the ratio of 1:1 were inoculated into the abdominal mammary fat pad of the 5 to 6 week old female nude mice. When the tumor were palpable, the mice were randomized into treatment and control groups where treatment groups received daily subcutaneous injection of tamoxifen (Sigma) dissolved in peanut oil (Sigma) and the control groups received subcutaneous injection of the solvent only. Tumor sizes were measured by caliper and tumor volume was calculated as (length*width*width)/2. Tumor growth rate was expressed as the % of tumor volume change calculated as the tumor volume measured at the indicated time point normalized against the tumor volume at day 0*100%. This protocol has been reviewed and approved by Committee on the Use of Live Animals in Teaching and Research (CULATR), the University of Hong Kong (CULATR No.: 3259-14)\n(§2) We further validated the effect of BQ323636.1 overexpression in conferring tamoxifen resistance using a nude mouse model. […] Tumor sizes were measured by caliper and tumor volume was calculated as (length*width*width)/2. Tumor growth rate was expressed as the % of tumor volume change calculated as the tumor volume measured at the indicated time point normalized against the tumor volume at day 0*100%. […]"}, "MCF7-vector": {"test_system": "MCF7-vector", "assay": "Orthotopic nude mouse model, MCF7-vector", "assay_type": "in vivo, nude mice", "settings": "mammary fat pad, daily subcutaneous injection in peanut oil", "method": "as §1, §2"}, "ZR75-BQ323636.1": {"test_system": "ZR75-BQ323636.1", "assay": "Orthotopic nude mouse model, ZR75-BQ323636.1", "assay_type": "in vivo, nude mice", "settings": "ZR75-BQ323636.1, mammary fat pad, daily subcutaneous injection in peanut oil", "method": "as §1, §2"}, "MCF7-BQ323636.1": {"test_system": "MCF7-BQ323636.1", "assay": "Orthotopic nude mouse model, MCF7-BQ323636.1", "assay_type": "in vivo, nude mice", "settings": "MCF7-BQ323636.1, mammary fat pad, daily subcutaneous injection in peanut oil", "method": "as §1, §2"}}}
{"smiles": "CC/C(=C(\\c1ccccc1)c1ccc(OCCN(C)C)cc1)c1ccccc1", "note": "[tamoxifen]", "values": [{"measurement": "tamoxifen resistance in MTT assay", "setting": "[1]", "value": "induced the tamoxifen resistance"}, {"measurement": "tumor growth versus solvent control group", "setting": "ZR75-vector", "value": "significantly reduced tumor growth"}, {"measurement": "tumor growth versus solvent control group", "setting": "MCF7-vector", "value": "significantly reduced tumor growth"}, {"measurement": "tumor growth versus solvent control group", "setting": "ZR75-BQ323636.1", "value": "no change of tumor growth"}, {"measurement": "tumor growth versus solvent control group", "setting": "MCF7-BQ323636.1", "value": "no change of tumor growth"}]}
